From ChEMBL document CHEMBL1144822, “Gymnastatins and dankastatins, growth inhibitory metabolites of a gymnascella species from a Halichondria sponge” (2008) come the findings set out here.

Values after ≈ are worked out from the molar mass of the structure shown.

The test system of assay [1] is P388. Briefly: Growth inhibition of mouse P388 cells. In kind it is functional. To be noted: read-out: ED50 (the source's name).
For assay [2], the system named is MKN-7. Briefly: Growth inhibition of human MKN7 cells. The class given is functional. To be noted: read-out: Log10GI50 (converted).
Assay [3] concerns 39 human cancer cell line panel (Homo sapiens). Briefly: Growth inhibition of 39 human cancer cell line panel. To be noted: read-out: Log10GI50 (converted).
A short description of assay [4]: Growth inhibition of human BSY1 cells. In kind it is functional. To be noted: BSY-1, read-out: Log10GI50 (converted).

As for `CCCCCC[C@@H](C)/C=C(C)/C=C/C(=O)N[C@@H]1CO[C@H]2[C@@H](Cl)C(=O)C(Cl)=C[C@@]2(O)C1` [DANKASTATIN B], the EC50 in assay [1] was 0.16 µg/mL (≈ 0.349 µM).
On to `CCCCCC[C@@H](C)/C=C(C)/C=C/C(=O)N[C@H]1C[C@]2(O)C=C(Cl)C(=O)[C@](Cl)([C@@H]1O)[C@H]2OC` [GYMNASTATIN Q], for which the EC50 in assay [1] came out at 1.7 µg/mL (≈ 3.48 µM). Further, the GI50 was 6.76 µM in assay [2], 15.5 µM in assay [3] and 3.39 µM in assay [4].
With `CCCCCC[C@@H](C)/C=C(C)/C=C/C(=O)N[C@H]1C[C@]2(O)C=C(Cl)C(=O)[C@@](Cl)(C2)[C@H]1O` [GYMNASTATIN R], in assay [1], the EC50 worked out at 2.8 µg/mL (≈ 6.11 µM).
The same measure, in the same setting: the value for `CCCCCC[C@@H](C)/C=C(C)/C=C/C(=O)N[C@H]1C[C@@]2(O)C=C(Cl)C(=O)[C@@H](Cl)[C@H]2O[C@@H]1OC` [DANKASTATIN A] was 0.15 µg/mL (≈ 0.307 µM).
